3 molecules from patent publication EP0244062A2, “Use of aryl ethanol amine derivatives in the treatment of atherosclerosis” (BEECHAM GROUP PLC, priority 1986, dated 1987) can be followed below.

Structures are written as SMILES.

Test [1] deals with hypercholesterolaemic mice. Nature of the test: Cholesterol reduction in hypercholesterolaemic mice on a high cholesterol-cholic acid diet (Example 4). Format: in vivo. Conditions: oral; for % Reduction LDL + VLDL cholesterol: heparin precipitation. As for the experimental part:
Compound P2 provided the following results with hypercholesterolaemic mice: Mice were made hypercholesterolaemic by being fed on a high cholesterol-cholic acid diet for seven days and were dosed orally on the sixth and seventh days. Low density and very low density lipoprotein (LDL and VLDL) cholesterol were measured together by heparin precipitation.

The subject of test [2] is Male rats. Nature of the test: Serum lipids in rats given the compound in the diet for 7 days (Example 5). Conditions: 0.1 g of the compound per kg of diet for 7 days, mean of 8 ± S.E. Format: in vivo. An excerpt:
Compound P3 provided the following results with rats: Male rats were fed on a normal diet or on a diet that contained O.lg of the compound per kg of diet for 7 days. Results are means of 8 values ± S.E.

In test [3] the test system is Obese subjects. Nature of the test: Clinical first study: obese subjects on a low energy liquid formula diet, six weeks (Example 6). As to conditions: 50 mg pfb, qds for six weeks, fasted. Format: in vivo, human. As for the experimental part: Clinical studies using compound P3: First study Obese subjects (at least 20% above ideal weight) were given a low energy liquid formula diet and treated with the compound (50 mg pfb, qds) or placebo for six weeks. Serum triglyceride and cholesterol were measured in the fasted state just prior to the first dose and on the morning after the last dose of compound or placebo. Results are means ± S.E. with the number of subjects in parenthesis.

For test [4], the system named is Obese subjects. The experiment in a line: Clinical second study: crossover in obese subjects on a low energy high fibre diet, 2 x six weeks (Example 6). Format: in vivo, human. As to conditions: 50 mg pfb qds first week, then 100 mg qds, fasted. As for the experimental part:
Clinical studies using compound P3: Second study Obese subjects (at least 20X above ideal weight) were given a low energy high fibre diet and treated with the compound or placebo for six weeks after which they were given the alternative treatment for a further six weeks. For the first week of treatment (weeks 1 or 7) the dose level was 50 mg pfb, qds and after this it was 100 mg qds. Serum lipids were measured in the fasted state just prior to the first dose and after each six week period of dosing. Results are means ± S.E. with the number of subjects in parentheses.

For test [5], the system named is Zucker fa/fa male rats. The experiment in a line: Plasma lipids in Zucker fa/fa rats dosed once daily for 39 days (Example 7). As to conditions: 7.8µmol/kg once daily for 39 days, mean of 8 ± S.E.M. Format: in vivo. As for the experimental part: Zucker fa/fa male rats of about 550g were dosed once daily with either water or Compound P3 (7.8µmol/kg) for 39 days. Results are means of 8 values ± S.E.M.

The test system of test [6] is normal mice. The experiment in a line: Serum lipids in normal mice dosed daily for 28 days (Example 1). Format: in vivo. Conditions: normal female CFLP mice, mean of 8 ± S.E.; for Serum triglyceride: untreated 40.0±3.2, P < 0.001; for Serum cholesterol: untreated 67.6±2.4. As for the experimental part:
Compound P1 provided the following results with normal mice: Normal female CFLP mice were dosed daily at 11.00h for 28 days. One group was also dosed at 17.00h daily. 0n the day after dosing terminated they were killed at 14.00h. Results are means of 8 values ± S.E.

The test system of test [7] is Goldthioglucose-induced obese mice. Nature of the test: Serum lipids in goldthioglucose-induced obese mice (Example 2). Conditions: goldthioglucose-induced obese female CFLP mice, 20 mg/kg p.o. once daily for 28 days, mean of 4 ± S.E. Format: in vivo. Here is the method:
Compound Pl provided the following results with Goldthioglucose-induced obese mice: . Female CFLP mice were given goldthioglucose (0.85 mg/g body wt., i.p.) and after 17 weeks the obese mice (mean wt. 57g) were selected and randomized into two groups of 4. The compound (20 mg/kg, p.o.) or water was given once daily for 28 days and the mice were killed the day after the last dose. Results are means of 4 values ± S.E.

The subject of test [8] is High fat diet-induced obese mice. The experiment in a line: Serum lipids in high fat diet-induced obese mice (Example 3). Format: in vivo. As to conditions: high fat diet-induced obese female CFLP mice, 20 mg/kg p.o. once daily for 28 days, mean ± S.E. (n=12). As for the experimental part: Compound Pl provided the following results with High fat diet-induced obese mice: Female CFLP mice were fed on a high protein, high fat diet. After 13 weeks the obese mice (mean wt. 49g) were selected and randomized into groups of 12. The compound (20 mg/kg, p.o.) or water was given once daily for 28 days and the mice were killed the day after the last dose. Results are means ± S.E, with numbers of determinations in parentheses.

Setting [9] is: total dose on days 6 and 7 5 mg/kg.
Where [10] appears, read: total dose on days 6 and 7 10 mg/kg.
The mark [11] stands for this setting: total dose on days 6 and 7 25 mg/kg.
Where [12] appears, read: 2.5 mg/kg body wt. p.o. daily for 28 days.
Where [13] appears, read: 2.5 mg/kg body wt. p.o. twice daily for 28 days.
Setting [14] is: 5 mg/kg body wt. p.o. daily for 28 days.
[15] abbreviates: 10 mg/kg body wt. p.o. daily for 28 days.
The mark [16] stands for this setting: 15 mg/kg body wt. p.o. daily for 28 days.

Take `COC(=O)COc1ccc(C[C@@H](C)NC[C@H](O)c2cccc(Cl)c2)cc1` (racemic) [Compound P2, N-(2-(4-carbomethoxymethoxyphenyl)-1-methylethyl)--2-hydroxy-2-(3-chlorophenyl)ethanamine nydrobromide]: the “% Reduction Total cholesterol” value in test [1] (setting [9]) turned out to be 24%; in test [1] (setting [10]) it was 22%; in test [1] (setting [11]), 34%. The “% Reduction LDL + VLDL cholesterol” value in test [1] (setting [9]) is listed as 29%; in test [1] (setting [10]), 28%; in test [1] (setting [11]), 55%.
`COC(=O)c1ccc(C[C@@H](C)NC[C@H](O)c2ccccc2)cc1` (racemic) [Compound P3, N-[2-(4-carbomethoxyphenyl)-1-methylethyl]-2-hydroxy-2-phenylethanamine hemifumarate] had a Serum cholesterol in test [2] (control 52±2) of 54±3 mg/100ml. The molecule also displayed a Serum triglyceride in test [2] (control 112±10, P < 0.05) of 70±4 mg/100ml. Also, the “Serum triglyceride % Fall” value in test [3] (initial 2.05±0.16 mM (4), subjects with initial levels below 1 mM excluded, placebo 21±7) was determined as 52±6%. Further, the “Serum cholesterol % Fall” value in test [3] (initial 5.81±0.44 mM (5), placebo 19±5) worked out at 21±7%. Besides, the “HDL cholesterol % change” value in test [4] (1st 6 weeks, initial 1.50±0.07 mM (15), placebo -10±3) is given as 0±4%; in test [4] (2nd 6 weeks (after crossover), initial 1.30±0.04 mM (15), placebo -5±4), “+14±3%”. In addition, the “Serum triglyceride % change” value in test [4] (1st 6 weeks, initial 1.57±0.18 mM (15), placebo -12±5) is on record as -25±5%; in test [4] (2nd 6 weeks (after crossover), initial 1.21±0.18 mM (15), placebo +33±10), -4±8%. For the same molecule, the “Serum cholesterol % change” value in test [4] (1st 6 weeks, initial 6.10±0.24 mM (15), placebo -13±3) was -9±3%; in test [4] (2nd 6 weeks (after crossover), initial 5.30±0.29 mM (15), placebo +4±3), “+5±3%”. Moreover, the “Plasma Cholesterol” value in test [5] (water 3.44 ± 0.10, p < 0.05) amounted to 3.07 ± 0.14 mM. Also, the “Plasma Triglyceride” value in test [5] (water 9.3 ± 0.7, p < 0.02) was determined as 5.9 ± 0.9 mM.
`COC(=O)c1ccc(CC(C)NCC(O)c2ccc(O)c(CO)c2)cc1` (centres unmarked) [Compound P1, N-(2-(4-carbomethoxghenyl)-1-metnylethyl) -2-hydroxy-2-(4-hydroxy-3-hydroxymethylphenyl) ethanamine]: the Serum triglyceride in test [6] (setting [12]) is 21.5±1.1 mg/100 ml; in test [6] (setting [13]), 16.4±0.8 mg/100 ml; in test [6] (setting [14]), 16.3±1.1 mg/100 ml; in test [6] (setting [15]), 14.5±0.7 mg/100 ml; in test [6] (setting [16]), 14.3±0.8 mg/100 ml; in test [7] (control 35±4, P < 0.05) it was 22±3 mg/100 ml. In addition, the Serum triglyceride in test [8] (control 73±8, P < 0.01) is recorded as 34±2**(12) mg/100ml. Besides, the Serum cholesterol in test [6] (setting [12]) turned out to be 67.0±3.2 mg/100 ml; in test [6] (setting [13]), 74.4±1.7 mg/100 ml; in test [6] (setting [14]), 69.1±2.4 mg/100 ml; in test [6] (setting [15]) it was 68.4±3.3 mg/100 ml; in test [6] (setting [16]) it was 71.0±2.4 mg/100 ml; in test [7] (control 82±4) it was 81±6 mg/100 ml. For the same molecule, in test [8] (control 118±3, P < 0.05), the Serum cholesterol is listed as 103±5*(12) mg/100ml.
